Measured values reported in ChEMBL document CHEMBL1201862, “PubChem BioAssay data set” (2004).
Active and inactive are the calls of the source.

Legend:
Assay type in all cases: functional
[1] = biological target: T1, Tyrosine-protein kinase receptor TYRO3 (Homo sapiens, UniProt Q06418);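 also: TYRO3 value obtained as one member of a kinome-wide profiling panel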
T1 sequence (Q06418 whole entry): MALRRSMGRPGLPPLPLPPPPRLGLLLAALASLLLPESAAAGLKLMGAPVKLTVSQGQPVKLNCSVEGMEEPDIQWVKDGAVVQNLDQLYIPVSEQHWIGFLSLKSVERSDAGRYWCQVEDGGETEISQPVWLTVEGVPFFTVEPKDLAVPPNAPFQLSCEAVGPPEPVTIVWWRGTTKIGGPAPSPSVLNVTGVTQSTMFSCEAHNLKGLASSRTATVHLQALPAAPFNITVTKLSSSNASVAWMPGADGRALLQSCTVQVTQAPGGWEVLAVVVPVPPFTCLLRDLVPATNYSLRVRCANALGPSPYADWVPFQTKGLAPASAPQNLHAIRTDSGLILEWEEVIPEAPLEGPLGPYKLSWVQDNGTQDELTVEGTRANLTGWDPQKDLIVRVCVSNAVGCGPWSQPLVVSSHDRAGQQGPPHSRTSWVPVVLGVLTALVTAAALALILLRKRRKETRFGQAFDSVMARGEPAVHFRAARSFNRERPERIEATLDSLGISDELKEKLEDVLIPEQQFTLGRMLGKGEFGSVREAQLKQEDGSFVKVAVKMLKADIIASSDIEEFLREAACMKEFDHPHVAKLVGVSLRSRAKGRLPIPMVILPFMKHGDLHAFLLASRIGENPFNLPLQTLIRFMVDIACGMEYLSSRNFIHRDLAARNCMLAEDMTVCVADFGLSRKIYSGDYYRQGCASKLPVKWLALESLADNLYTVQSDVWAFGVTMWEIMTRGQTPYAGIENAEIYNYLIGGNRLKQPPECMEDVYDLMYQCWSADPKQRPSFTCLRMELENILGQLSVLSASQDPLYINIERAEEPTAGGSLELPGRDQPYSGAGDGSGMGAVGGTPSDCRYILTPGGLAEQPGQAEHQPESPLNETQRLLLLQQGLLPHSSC

[2] = biological target: Casein kinase I isoform alpha (Homo sapiens, UniProt P48729)
LIM domain kinase 1 = LIM domain kinase 1 (Homo sapiens, UniProt P53667); assay: Navigating the Kinome. Panel member name: LIMK1
Sequence of LIM domain kinase 1 (P53667 whole entry, the tested form may be a part): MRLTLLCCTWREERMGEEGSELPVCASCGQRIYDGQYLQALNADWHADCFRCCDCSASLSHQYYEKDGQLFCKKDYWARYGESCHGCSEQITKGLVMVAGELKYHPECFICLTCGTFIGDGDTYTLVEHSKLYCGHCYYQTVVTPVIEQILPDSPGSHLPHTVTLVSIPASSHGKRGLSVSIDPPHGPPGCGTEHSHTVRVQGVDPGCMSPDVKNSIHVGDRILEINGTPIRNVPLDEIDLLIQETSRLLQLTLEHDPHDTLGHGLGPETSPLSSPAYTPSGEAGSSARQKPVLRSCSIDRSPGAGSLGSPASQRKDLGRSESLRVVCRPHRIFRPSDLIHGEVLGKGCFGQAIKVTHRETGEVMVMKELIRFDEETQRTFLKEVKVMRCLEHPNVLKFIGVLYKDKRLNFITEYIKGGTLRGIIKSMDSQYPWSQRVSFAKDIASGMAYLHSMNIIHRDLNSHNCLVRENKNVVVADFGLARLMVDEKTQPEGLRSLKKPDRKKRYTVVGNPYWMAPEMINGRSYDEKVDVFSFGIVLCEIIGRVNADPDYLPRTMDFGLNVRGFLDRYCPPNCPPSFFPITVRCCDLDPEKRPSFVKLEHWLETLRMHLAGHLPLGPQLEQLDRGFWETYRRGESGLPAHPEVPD

[3] = biological target: T2, Serine/threonine-protein kinase Chk1 (Homo sapiens, UniProt O14757);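 also: measured as one member of a kinome-wide kinase profiling panel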
T2 sequence (O14757 whole entry): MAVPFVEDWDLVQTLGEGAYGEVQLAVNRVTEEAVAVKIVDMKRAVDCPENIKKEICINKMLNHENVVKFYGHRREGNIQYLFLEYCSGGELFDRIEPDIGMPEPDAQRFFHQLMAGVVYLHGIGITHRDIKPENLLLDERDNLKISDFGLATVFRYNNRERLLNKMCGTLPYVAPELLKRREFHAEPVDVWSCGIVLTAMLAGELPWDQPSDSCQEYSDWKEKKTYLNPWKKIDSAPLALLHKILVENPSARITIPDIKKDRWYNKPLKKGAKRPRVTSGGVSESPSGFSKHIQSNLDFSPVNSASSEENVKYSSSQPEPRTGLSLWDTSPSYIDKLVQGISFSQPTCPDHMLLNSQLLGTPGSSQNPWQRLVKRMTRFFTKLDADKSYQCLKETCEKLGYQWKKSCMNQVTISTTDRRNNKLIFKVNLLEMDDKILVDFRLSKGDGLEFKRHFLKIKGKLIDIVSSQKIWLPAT

[4] = biological target: G protein-coupled receptor kinase 5 (Homo sapiens, UniProt P34947); assay: Navigating the Kinome. Panel member name: GPRK5
Sequence of G protein-coupled receptor kinase 5 (P34947 whole entry): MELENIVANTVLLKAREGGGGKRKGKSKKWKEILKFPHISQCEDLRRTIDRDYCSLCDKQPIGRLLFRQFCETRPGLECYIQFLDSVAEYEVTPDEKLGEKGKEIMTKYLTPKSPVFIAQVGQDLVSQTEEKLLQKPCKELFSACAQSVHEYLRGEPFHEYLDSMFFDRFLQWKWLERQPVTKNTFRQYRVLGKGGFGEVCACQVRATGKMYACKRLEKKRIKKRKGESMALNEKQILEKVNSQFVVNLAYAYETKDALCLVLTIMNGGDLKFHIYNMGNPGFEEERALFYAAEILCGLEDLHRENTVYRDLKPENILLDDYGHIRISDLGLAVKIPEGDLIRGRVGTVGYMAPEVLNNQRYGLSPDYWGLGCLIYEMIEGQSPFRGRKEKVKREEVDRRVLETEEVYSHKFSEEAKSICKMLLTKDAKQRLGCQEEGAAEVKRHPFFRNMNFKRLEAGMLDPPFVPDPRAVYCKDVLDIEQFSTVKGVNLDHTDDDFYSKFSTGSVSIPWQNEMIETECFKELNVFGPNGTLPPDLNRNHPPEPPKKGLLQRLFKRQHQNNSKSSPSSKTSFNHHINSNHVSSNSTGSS

[5] = biological target: Dual specificity tyrosine-phosphorylation-regulated kinase 1B (Homo sapiens, UniProt Q9Y463); assay: Navigating the Kinome. Panel member name: DYRK1B
Sequence of Dual specificity tyrosine-phosphorylation-regulated kinase 1B (Q9Y463 whole entry): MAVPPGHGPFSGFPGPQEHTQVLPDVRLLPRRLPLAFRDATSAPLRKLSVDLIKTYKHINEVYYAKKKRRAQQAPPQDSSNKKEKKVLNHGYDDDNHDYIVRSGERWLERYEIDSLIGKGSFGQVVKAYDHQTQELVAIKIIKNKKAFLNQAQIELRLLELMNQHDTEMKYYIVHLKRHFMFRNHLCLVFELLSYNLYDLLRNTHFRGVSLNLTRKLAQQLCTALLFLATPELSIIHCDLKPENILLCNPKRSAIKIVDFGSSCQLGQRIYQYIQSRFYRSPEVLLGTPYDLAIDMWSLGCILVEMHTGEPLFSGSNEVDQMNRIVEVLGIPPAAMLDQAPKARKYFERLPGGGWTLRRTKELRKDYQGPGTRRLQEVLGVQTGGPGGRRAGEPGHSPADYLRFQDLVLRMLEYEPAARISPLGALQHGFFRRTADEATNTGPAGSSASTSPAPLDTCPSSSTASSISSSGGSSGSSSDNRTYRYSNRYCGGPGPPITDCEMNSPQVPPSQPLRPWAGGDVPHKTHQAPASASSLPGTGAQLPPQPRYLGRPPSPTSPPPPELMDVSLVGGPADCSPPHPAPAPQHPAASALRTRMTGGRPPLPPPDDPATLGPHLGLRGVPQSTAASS

[6] = biological target: Leucine-rich repeat serine/threonine-protein kinase 2 (Homo sapiens, UniProt Q5S007);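 also: value from a broad kinome-wide panel profiling study in which LRRK2 was one of the kinases tested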
[7] = biological target: Dual specificity protein kinase CLK4 (Homo sapiens, UniProt Q9HAZ1)
Sequence of Dual specificity protein kinase CLK4 (Q9HAZ1 whole entry): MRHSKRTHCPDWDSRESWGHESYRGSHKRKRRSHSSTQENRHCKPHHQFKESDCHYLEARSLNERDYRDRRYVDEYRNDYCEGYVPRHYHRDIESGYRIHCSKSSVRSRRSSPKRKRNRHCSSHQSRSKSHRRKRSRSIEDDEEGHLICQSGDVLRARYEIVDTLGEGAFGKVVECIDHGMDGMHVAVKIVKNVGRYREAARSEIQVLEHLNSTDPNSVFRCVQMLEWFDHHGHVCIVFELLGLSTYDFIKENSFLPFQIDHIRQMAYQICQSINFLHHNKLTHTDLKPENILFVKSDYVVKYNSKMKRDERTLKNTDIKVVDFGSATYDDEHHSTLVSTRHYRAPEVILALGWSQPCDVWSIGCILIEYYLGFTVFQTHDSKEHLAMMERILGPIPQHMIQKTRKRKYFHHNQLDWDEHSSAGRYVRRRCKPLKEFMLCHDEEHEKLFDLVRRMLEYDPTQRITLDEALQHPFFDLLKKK

[8] = biological target: Leukocyte tyrosine kinase receptor (Homo sapiens, UniProt P29376); assay: Navigating the Kinome. Panel member name: LTK
Sequence of Leukocyte tyrosine kinase receptor (P29376 whole entry): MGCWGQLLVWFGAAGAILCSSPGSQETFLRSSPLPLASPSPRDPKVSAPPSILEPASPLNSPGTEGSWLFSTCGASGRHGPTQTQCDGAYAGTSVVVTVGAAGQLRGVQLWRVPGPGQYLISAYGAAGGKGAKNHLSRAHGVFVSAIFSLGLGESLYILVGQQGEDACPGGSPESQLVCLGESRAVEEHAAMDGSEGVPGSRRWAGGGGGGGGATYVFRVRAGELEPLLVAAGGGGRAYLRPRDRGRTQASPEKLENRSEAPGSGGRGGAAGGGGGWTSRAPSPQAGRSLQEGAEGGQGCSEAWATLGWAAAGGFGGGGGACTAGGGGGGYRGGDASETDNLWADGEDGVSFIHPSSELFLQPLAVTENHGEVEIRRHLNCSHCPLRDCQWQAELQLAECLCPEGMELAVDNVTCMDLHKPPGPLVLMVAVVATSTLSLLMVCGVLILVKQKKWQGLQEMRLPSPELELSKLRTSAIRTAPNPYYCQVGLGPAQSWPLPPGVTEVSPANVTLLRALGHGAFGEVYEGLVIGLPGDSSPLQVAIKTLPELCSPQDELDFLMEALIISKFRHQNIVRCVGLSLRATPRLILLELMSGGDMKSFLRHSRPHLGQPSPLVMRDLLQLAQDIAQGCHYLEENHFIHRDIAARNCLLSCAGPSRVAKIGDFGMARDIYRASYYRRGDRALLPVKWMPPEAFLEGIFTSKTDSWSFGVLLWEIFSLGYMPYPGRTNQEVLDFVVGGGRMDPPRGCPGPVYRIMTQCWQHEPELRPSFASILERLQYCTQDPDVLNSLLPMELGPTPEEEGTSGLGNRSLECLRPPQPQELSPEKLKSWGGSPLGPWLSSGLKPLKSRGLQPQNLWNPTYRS

[9] = biological target: Serine/threonine-protein kinase pim-1 (Homo sapiens, UniProt P11309)
[10] = biological target: Mitogen-activated protein kinase kinase kinase kinase 2 (Homo sapiens, UniProt Q12851);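 also: measured as one member of a kinome-wide kinase panel, with MAP4K2 as the panel entry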
Sequence of Mitogen-activated protein kinase kinase kinase kinase 2 (Q12851 whole entry): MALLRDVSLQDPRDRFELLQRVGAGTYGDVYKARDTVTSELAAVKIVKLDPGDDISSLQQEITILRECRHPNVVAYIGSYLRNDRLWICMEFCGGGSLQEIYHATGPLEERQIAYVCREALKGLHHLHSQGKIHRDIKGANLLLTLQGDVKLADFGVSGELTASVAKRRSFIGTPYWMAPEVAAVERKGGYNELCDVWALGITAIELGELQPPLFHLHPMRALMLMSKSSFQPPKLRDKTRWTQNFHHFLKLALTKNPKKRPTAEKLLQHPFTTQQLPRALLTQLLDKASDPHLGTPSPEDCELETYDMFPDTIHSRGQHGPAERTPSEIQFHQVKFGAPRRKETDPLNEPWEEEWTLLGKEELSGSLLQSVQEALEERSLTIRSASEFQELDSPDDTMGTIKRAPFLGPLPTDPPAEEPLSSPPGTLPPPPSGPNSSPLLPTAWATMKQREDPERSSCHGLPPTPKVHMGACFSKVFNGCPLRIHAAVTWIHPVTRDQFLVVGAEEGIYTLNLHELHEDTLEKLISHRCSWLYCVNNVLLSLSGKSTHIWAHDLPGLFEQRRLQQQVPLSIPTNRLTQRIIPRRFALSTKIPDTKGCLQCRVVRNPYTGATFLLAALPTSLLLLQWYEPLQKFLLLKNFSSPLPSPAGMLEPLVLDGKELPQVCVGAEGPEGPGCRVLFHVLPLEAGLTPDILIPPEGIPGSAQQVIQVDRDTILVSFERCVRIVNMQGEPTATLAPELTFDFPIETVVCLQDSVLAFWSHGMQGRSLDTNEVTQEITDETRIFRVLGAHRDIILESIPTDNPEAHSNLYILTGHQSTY

[11] = biological target: Cyclin-dependent kinase 8 (Homo sapiens, UniProt P49336); assay: Navigating the Kinome. Panel member name: CDK8
Sequence of Cyclin-dependent kinase 8 (P49336 whole entry): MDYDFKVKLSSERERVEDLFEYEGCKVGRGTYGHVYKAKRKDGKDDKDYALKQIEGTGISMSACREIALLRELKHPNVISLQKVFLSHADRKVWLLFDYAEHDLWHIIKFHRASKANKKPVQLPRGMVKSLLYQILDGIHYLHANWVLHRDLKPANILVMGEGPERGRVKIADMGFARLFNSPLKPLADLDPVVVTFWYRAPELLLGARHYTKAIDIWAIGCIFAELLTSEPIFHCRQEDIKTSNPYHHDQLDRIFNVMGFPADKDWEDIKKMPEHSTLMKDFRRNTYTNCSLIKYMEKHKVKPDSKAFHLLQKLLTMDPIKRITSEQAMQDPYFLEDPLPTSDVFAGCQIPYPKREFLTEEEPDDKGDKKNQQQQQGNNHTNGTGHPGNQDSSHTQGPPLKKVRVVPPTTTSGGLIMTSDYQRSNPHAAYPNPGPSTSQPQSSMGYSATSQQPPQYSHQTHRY

[12] = biological target: Dual specificity mitogen-activated protein kinase kinase 2 (Homo sapiens, UniProt P36507); assay: Navigating the Kinome. Panel member name: MAP2K2
Sequence of Dual specificity mitogen-activated protein kinase kinase 2 (P36507 whole entry): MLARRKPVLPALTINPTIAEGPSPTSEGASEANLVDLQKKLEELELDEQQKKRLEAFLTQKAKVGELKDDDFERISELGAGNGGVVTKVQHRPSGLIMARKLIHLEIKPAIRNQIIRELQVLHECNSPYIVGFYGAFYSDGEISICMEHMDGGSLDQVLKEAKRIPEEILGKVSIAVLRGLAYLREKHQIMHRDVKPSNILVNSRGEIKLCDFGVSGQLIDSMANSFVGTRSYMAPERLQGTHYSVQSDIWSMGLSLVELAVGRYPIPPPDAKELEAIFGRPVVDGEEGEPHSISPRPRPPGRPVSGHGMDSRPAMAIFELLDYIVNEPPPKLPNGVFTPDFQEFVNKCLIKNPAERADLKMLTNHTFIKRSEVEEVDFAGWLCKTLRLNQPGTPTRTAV

Ki [1] | Ki [2] | Ki (LIM domain kinase 1) | Ki [3] | Ki [4] | Ki [5] | Ki [6] | Ki [7] | Ki [8] | Ki [9] | Ki [10] | Ki [11] | Ki [12] | SMILES
50.1 µM (active) | 79.4 µM (active) | 63.1 µM (active) | 63.1 µM (active) | 50.1 µM (active) | 63.1 µM (active) | 100 µM (active) | 63.1 µM (active) | 100 µM (active) | – | – | – | – | Nc1nnc2cccc(Cl)n12
– | – | – | – | – | – | – | – | – | 2.51 µM (active) | 2.51 µM (active) | 1 µM (active) | 1.26 µM (active) | Nc1cc2c(Oc3ccc(Cl)cc3)cncc2s1
